Molecules are shown by their SMILES. Activity calls are given as the source filed them.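 How the source made its calls: active means potency, meaning EC50, at or under 10 µM; inactive means the rest.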

The EC50 is the concentration at which the effect is half-maximal.

Sequence of Melanocortin receptor 4 (Homo sapiens) (P32245 whole entry, looked up): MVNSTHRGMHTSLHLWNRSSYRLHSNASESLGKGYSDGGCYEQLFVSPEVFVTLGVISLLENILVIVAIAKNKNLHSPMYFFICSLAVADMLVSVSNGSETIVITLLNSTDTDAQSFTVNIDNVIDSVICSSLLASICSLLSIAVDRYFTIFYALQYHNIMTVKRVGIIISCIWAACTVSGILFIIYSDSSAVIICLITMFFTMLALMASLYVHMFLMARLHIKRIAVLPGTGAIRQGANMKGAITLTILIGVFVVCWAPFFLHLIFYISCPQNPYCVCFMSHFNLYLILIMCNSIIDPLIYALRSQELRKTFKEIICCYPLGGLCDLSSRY

The experiment has as its target Melanocortin receptor 4 (Homo sapiens) (UniProt P32245). Nature of the experiment: MC4R agonists of cAMP signaling, late-stage follow-up, cell-based, FRET (AID 651547). The note with it: MC4R-expressing cells, cAMP TR-FRET (LANCE Ultra), agonist.
Turning to `CNC(=O)c1cc(Oc2ccc(NC(=O)Nc3ccc(Cl)c(C(F)(F)F)c3)cc2)ccn1`, the EC50 was > 50 µM (inactive).
For `CCC1CCCCN1S(=O)(=O)c1ccc(NC(=O)c2ccccc2)cc1` (centres undefined), the EC50 was > 50 µM (inactive).
To `Cc1ccccc1CN1Cc2cnnn2-c2ccccc2C1C#N` (centres undefined) belongs > 50 µM (inactive).
`COc1ccccc1C1(CCNC(C)c2cccs2)CCOC(C(C)C)C1` (centres undefined): the EC50 was > 50 µM (inactive).
To `CC(=O)c1ccc(Nc2nc3ccc(C(=O)N(CCC(C)C)CCC(C)C)cc3n2CCCN2CCCCC2)cc1` belongs > 50 µM (inactive); to `CNC(=O)c1cc(Oc2ccc(NCC(=O)Nc3ccc(Cl)c(C(F)(F)F)c3)cc2)ccn1`, > 50 µM (inactive); to `CCC1CCCCN1S(=O)(=O)c1ccc(NC(=O)c2cccc(S(C)(=O)=O)c2)cc1` (centres undefined), > 50 µM (inactive).
To `CCC1CCCCN1S(=O)(=O)c1ccc(NC(=O)c2ccnc(SC)n2)cc1` (centres undefined) belongs > 50 µM (inactive).
As for `CC1CCCCN1S(=O)(=O)c1ccc(NC(=O)c2nc(S(C)(=O)=O)ncc2Cl)cc1` (centres undefined), the EC50 was > 50 µM (inactive).
As for `O=C1c2cccc3cccc(c23)C(=O)N1CC1CCN(CC(O)COc2ccc3ccccc3c2)CC1` (centres undefined), the EC50 is > 50 µM (inactive).
Take `CCC1CCCCN1S(=O)(=O)c1ccc(NC(=O)c2nc(S(C)(=O)=O)ncc2Cl)cc1` (centres undefined): the EC50 was > 50 µM (inactive).
For the compound `CNC(=O)c1cc(Oc2ccc(NC(=O)CNc3ccc(Cl)c(C(F)(F)F)c3)cc2)ccn1`, the EC50 was > 50 µM (inactive).
As for `C#CC(=O)N(c1ccc(OC)c(OC)c1)C(C(=O)NC1CCCC1)c1cccs1` (centres undefined), the EC50 was > 50 µM (inactive).
For `COc1ccc(N(C(C)=O)C(C(=O)NC2CCCC2)c2cccs2)cc1OC` (centres undefined), the EC50 was > 50 µM (inactive).

(Values after PubChem BioAssay AID651547 (The Scripps Research Institute Molecular Screening Center, 2012).)
